Data: patent US6558900B2, “Regulation of apoptosis and in vitro model for studies thereof” (Emory University, priority 1996, dated 2003)
“Also recorded” adds a separate entry of the source.

Legend:
hamster liver nuclei = test: DNA fragmentation assay (HeLa S-100 incubated with hamster liver nuclei); format: biochemical; conditions: 1 mM nucleotide, 37° C., 2 hr
Description: FIGS. 1A-1D illustrate dATP-dependent activation of CPP32 and DNA fragmentation in vitro. Aliquots (10 μl) of HeLa cell S-100 (50 μg) were incubated alone (lane 1), in the presence of 1 mM ATP (lane 2), or in the presence of 1 mM dATP (lane 3) at 30° C. for 1 hr in a final volume of 20 μl of buffer A. FIG. 1A, samples were subjected to SDS-PAGE and transferred to a nitrocellulose filter, probed with a monoclonal anti-CPP32 antibody, and the antigen/antibody complex was visualized by the ECL method. The filter was exposed to Kodak X-OMAT AR X-ray film for 1 min. In FIG. 1B, an aliquot of 10 μl of in vitro translated, ^35S-labeled PARP was added to each reaction. After 5 min, the samples were subjected to SDS-PAGE and transferred to a nitrocellulose filter. The filter was exposed to film for 2 hr at room temperature. In FIG. 1C, a 5 μl aliquot of in vitro translated, ^35S-labeled SREBP-2 was added to each reaction. After incubation at 30° C. for 30 min, the samples were subjected to SDS-PAGE, the gel was dried and exposed to film for 2 hr at room temperature. […]
FIGS. 2A-2B illustrate the nucleotide specificity for in vitro activation of CPP32 and DNA fragmentation. […] The DNA was isolated, analyzed by 2% agarose gel electrophoresis and visualized by ethidium bromide staining. […]

CPP32 = test: Activation of endogenous CPP32 in HeLa cell S-100 (Western blot; cleavage of 35S-labeled PARP and SREBP-2); format: biochemical, human; conditions: 1 mM nucleotide, 30° C., 1 hr, Western blot
Description: FIGS. 1A-1D illustrate dATP-dependent activation of CPP32 and DNA fragmentation in vitro. Aliquots (10 μl) of HeLa cell S-100 (50 μg) were incubated alone (lane 1), in the presence of 1 mM ATP (lane 2), or in the presence of 1 mM dATP (lane 3) at 30° C. for 1 hr in a final volume of 20 μl of buffer A. FIG. 1A, samples were subjected to SDS-PAGE and transferred to a nitrocellulose filter, probed with a monoclonal anti-CPP32 antibody, and the antigen/antibody complex was visualized by the ECL method. The filter was exposed to Kodak X-OMAT AR X-ray film for 1 min. In FIG. 1B, an aliquot of 10 μl of in vitro translated, ^35S-labeled PARP was added to each reaction. After 5 min, the samples were subjected to SDS-PAGE and transferred to a nitrocellulose filter. The filter was exposed to film for 2 hr at room temperature. In FIG. 1C, a 5 μl aliquot of in vitro translated, ^35S-labeled SREBP-2 was added to each reaction. After incubation at 30° C. for 30 min, the samples were subjected to SDS-PAGE, the gel was dried and exposed to film for 2 hr at room temperature. In FIG. 1D, a 50 μlaliquot of HeLa cell S-100 (250 μg) was incubated with 6 μl Hamster Liver nuclei in the absence (lane 1), or presence of 1 mM ATP (lane 2) or dATP (lane 3) for 2 hr at 37° C. in a final volume of 60 μl of buffer A. DNA was isolated as described in the Examples and size-separated by agarose gel electrophoresis (2% agarose), and the DNA was visualized by ethidium bromide staining.
Activation of CPP32 and DNA fragmentation are two well characterized biochemical markers of apoptosis and its initiation. With the goal of producing an in vitro system that duplicates apoptosis, we prepared 100,000×g cytosolic supernatant (S-100) from suspension cultures of HeLa cells. The activation of CPP32 is the result of cleavage of its 32 kDa precursor into the 20 kDa NH2-terminal fragment and 11 kDa COOH-terminal fragment [Nicholson et al. (1995) supra], thus the activation of CPP32 in the HeLa cell S-100 was monitored by Western blot analysis using a monoclonal antibody against the 20 kDa fragment of CPP32 (FIG. 1A). The enzymatic activity of CPP32 was assayed by measuring the cleavage of two ^35S-labeled substrates, PARP (FIG. 1B) and SREBP-2 (FIG. 1C). DNA fragmentation was assayed by incubating the HeLa cell S-100 with nuclei isolated from hamster liver followed by genomic DNA extraction and analysis by agarose gel electrophoresis. […] The sizes of the cleaved products of PARP and SREBP-2 were the same as observed in cells undergoing apoptosis [Kaufmann et al. (1993) Cancer Res. 53, 3976-3985; Wang et al. (1996) supra]. […]

HeLa cells = test: Staurosporine treatment of HeLa cells: cytochrome c in S-cytosol and PARP cleavage; format: cell-based, human; conditions: 1 μM, 6 hr
Description: HeLa cells were treated as described in FIG. 9. On day 2, staurosporine at a final concentration of 1 μM was added to the medium as indicated. After incubation at 37° C. for 6 hr, the cells were harvested and S-cytosols were prepared as described in FIG. 9. In FIG. 10A, a 50 μg aliquot of HeLa cell S-100 as in FIGS. 1-7 (lane 1), or S-cytosol from HeLa cells (lane 2), or S-cytosol from HeLa cells treated with staurosporine for 6 hr. In lane 4, aliquot of 0.2 μg of Apaf-2 purified through Mono S column step. Proteins were separated using 15% SDS-PAGE, transferred to a nitrocellulose filter, and probed with a monoclonal anti-cytochrome c antibody and the antigen/antibody complex was visualized by the ECL method as described herein. Kodak X-OMAT AR X-ray film was exposed for 15 seconds. The arrow denotes the position of cytochrome c; X denotes protein bands cross-reacting with this antibody. In FIG. 10B, aliquots containing 4.5 μg of S-cytosol from HeLa cells (−staurosporine) or HeLa cells treated with 1 μM staurosporine for 6 hr (+staurosporine) were incubated with 10 μl aliquots of in vitro translated, 35S-labeled PARP for 30 min at 30° C. in a volume of 20 μl of buffer A. Samples were then subjected to 12% SDS-PAGE, transferred to a nitrocellulose filter, and film was exposed for 4 hr at room temperature.
HeLa cells were treated with staurosporine. […]

variety of cell types = conditions: cited from earlier work
U937 cells = test: Staurosporine treatment of human monoblastic U937 cells; format: cell-based

SMILES | DNA fragmentation in hamster liver nuclei (hamster liver nuclei) | activation of CPP32 in HeLa cell S-100 (CPP32) | activation of endogenous CPP32 detected by cleavage of PARP (HeLa cells) | cytochrome c in S-cytosol (HeLa cells; vs non-treated cells) | initiation of apoptosis (variety of cell types) | cytochrome c in cytosol / CPP32 activation (U937 cells)
Nc1ncnc2c1ncn2[C@@H]1O[C@H](COP(=O)(O)OP(=O)(O)OP(=O)(O)O)[C@@H](O)[C@H]1O [ATP] | Such fragmentation did not occur | no activation of CPP32 was observed | – | – | – | –
CN[C@@H]1C[C@H]2O[C@@](C)([C@@H]1OC)n1c3ccccc3c3c4c(c5c6ccccc6n2c5c31)C(=O)NC4 [staurosporine] | – | – | resulted in activation of the endogenous CPP32 | increased release of cytochrome c to the cytosol; also recorded: markedly elevated cytochrome c; also recorded: increased cytosolic cytochrome c | potent apoptosis inducer | The same phenomenon was also observed
